Results from the NIST ThermoML archive (doi:10.1016/j.jct.2016.07.005).

Assay: refractive index (Na D-line) (dimensionless); xn = mol fraction of the nth substance listed
Settings: 100 kPa, Liquid, Standard Abbe refractometry

CN1CCC[C@H]1c1cccnc1 [(-)-3-(N-methylpyrrolidino)pyridine] + CC(O)CO
refractive index
Settings	x1 = 0.1	x1 = 0.2009	x1 = 0.3	x1 = 0.4016	x1 = 0.5	x1 = 0.6005	x1 = 0.7	x1 = 0.7983	x1 = 0.9	x1 = 1
293.15 K	1.45151	1.46746	1.48003	1.4907	1.49923	1.50631	1.51219	1.51744	1.52199	1.52665
298.15 K	1.44969	1.4656	1.47804	1.48864	1.49711	1.50413	1.50997	1.5152	1.51971	1.52439
303.15 K	1.448	1.46377	1.47612	1.48662	1.49496	1.50195	1.50774	1.51296	1.51749	1.52214
308.15 K	1.44622	1.46193	1.47424	1.48462	1.49301	1.49987	1.50568	1.51076	1.5153	1.51988
313.15 K	1.44441	1.46029	1.4723	1.48255	1.49092	1.49774	1.50345	1.5087	1.51312	1.5179
318.15 K	1.44265	1.45843	1.47031	1.48043	1.48871	1.49555	1.50118	1.50651	1.511	1.51592
323.15 K	1.44081	1.45653	1.46833	1.47837	1.48665	1.49341	1.49904	1.50435	1.50881	1.51373

CN1CCC[C@H]1c1cccnc1 [(-)-3-(N-methylpyrrolidino)pyridine] + CCC(C)O
refractive index
Settings	x1 = 0.1	x1 = 0.2036	x1 = 0.3	x1 = 0.4	x1 = 0.5	x1 = 0.6	x1 = 0.6956	x1 = 0.8	x1 = 0.9	x1 = 1
293.15 K	1.41889	1.43839	1.4542	1.46843	1.48084	1.49173	1.50103	1.51029	1.51858	1.52665
298.15 K	1.41668	1.43618	1.45199	1.46621	1.47864	1.48952	1.4988	1.50803	1.51632	1.52439
303.15 K	1.41438	1.43393	1.44972	1.46397	1.47644	1.48735	1.49664	1.50585	1.5141	1.52214
308.15 K	1.41211	1.43166	1.44747	1.46172	1.4742	1.48511	1.49439	1.50359	1.51184	1.51988
313.15 K	1.40979	1.42936	1.44519	1.45945	1.47192	1.48284	1.49217	1.50145	1.50978	1.5179
318.15 K	1.40753	1.4271	1.44297	1.45725	1.46971	1.48065	1.49001	1.49933	1.50772	1.51592
323.15 K	1.40509	1.42476	1.44065	1.45496	1.46747	1.47843	1.48779	1.49711	1.5055	1.51373
